In patent US9216964B2, “Hedgehog pathway modulators” (Novartis AG, priority 2008, dated 2015) one finds IC50 data, which are given here for 69 compounds.

As usually defined, the IC50 is the concentration that inhibits the measured activity by half.

In the first assay the test system is hedgehog signaling pathway. In words: Gli-Luc Reporter Assay for Hh Pathway Inhibition (TMHh-12 cells, pTA-8×Gli-Luc reporter). It is filed as cell-based, Mouse. The settings on record: Mus musculus, TMHh12, Ag1.5 1 nM; read-out: Hedgehog Inhibition IC50 (nM) (Ag1.5 1 nM). Put shortly:
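Mouse TM3 cells stably carrying an 8×Gli-firefly luciferase reporter, in 2% FBS medium; pathway activated with recombinant mouse Shh (8 μg/mL) or Smo agonist, compounds added at varying concentrations for 48 h. Luminescence read; IC50 at 50% signal reduction. Toxicity checked in TM3 cells (CellTiter-Glo) or constitutive-luciferase TM3-Luc cells.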
(Reporter assays use an easily measured gene product as a stand-in for the process of interest.)
As for `Cc1cc(C#N)ccc1-c1cc(Nc2cccc3c2CCN(S(C)(=O)=O)C3)ccc1C` [Compound 163], the IC50 was determined as 47 nM. In the case of `Cc1ccc(Nc2cccc3c2CCN(S(C)(=O)=O)C3)cc1C(=O)Nc1ccc(C(F)(F)F)cc1` [Compound 184], the IC50 was found to be 0.7 nM.

`Cc1ccc(Nc2cccc3c2CCN(S(C)(=O)=O)C3)cc1C(=O)Nc1ccc(F)cc1` [Compound 185]: the IC50 came to 0.4 nM. On the same count and under the same terms, under `Cc1ccc(Nc2cccc3c2CCN(S(C)(=O)=O)C3)cc1C(=O)Nc1ccc(OC(F)(F)F)cc1` [Compound 187] stands 1.1 nM; under `Cc1cnc(-c2cc(Nc3cccc4c3CCN(S(C)(=O)=O)C4)ccc2C)nc1` [Compound 216], 15 nM.

In the case of `Cc1ccc(Nc2cccc3c2CCN(S(C)(=O)=O)C3)cc1-c1cc2ccccc2cn1` [Compound 229], the IC50 was 0.3 nM.

Staying with this assay, now noted: Mus musculus, TMHh12, enzymatic and cellular assays for the inhibition of hedgehog signaling pathways; read-out: IC50 Ranges.
Turning to `Cc1cc(C#N)ccc1-c1cc(Nc2cccc3c2CCN(S(C)(=O)=O)C3)ccc1C` [Compound 163], the IC50 is 10 to 100 nM. For `Cc1ccc(Nc2cccc3c2CCN(S(C)(=O)=O)C3)cc1-c1ccc(F)cn1` [Compound 164], the IC50 fell in the range of 0.001 to 1 nM. Same read-out and setting: to `COc1cccc(-c2cc(Nc3cccc4c3CCN(S(C)(=O)=O)C4)ccc2C)n1` [Compound 165] belongs 100 to 1000 nM; to `Cc1ccc(Nc2cccc3c2CCN(S(C)(=O)=O)C3)cc1OCc1ccc(C#N)cc1` [Compound 166], 10 to 100 nM; to `Cc1cc(C#N)ccc1-c1cccc(Nc2cccc3c2CCN(S(C)(=O)=O)C3)c1` [Compound 168], 100 to 1000 nM. The same measure, in the same setting: under `Cc1ccc(-c2cc(Nc3cccc4c3CCN(S(C)(=O)=O)C4)ccc2C)nc1` [Compound 169] stands 0.001 to 1 nM; under `Cc1ccc(-c2cc(Nc3cccc4c3CCN(S(C)(=O)=O)C4)ccc2C)nn1` [Compound 170], 1 to 10 nM. Turning to `CS(=O)(=O)N1CCc2c(cccc2Nc2cc(-c3ccc(C#N)cc3)c(Cl)cn2)C1` [Compound 171], the IC50 lay in the range of 100 to 1000 nM. As to `CS(=O)(=O)N1CCc2c(cccc2Nc2ccc(C(=O)O)c(-c3ccc(C#N)cc3)c2)C1` [Compound 172], the IC50 is > 10000 nM. Regarding `Cc1ccc(Nc2cccc3c2CCN(S(C)(=O)=O)C3)cc1-c1ccc(Cl)cn1` [Compound 173], the IC50 lay within 0.001 to 1 nM. Same read-out and setting: to `COc1ccc(-c2cc(Nc3cccc4c3CCN(S(C)(=O)=O)C4)ccc2C)nc1` [Compound 174] belongs 0.001 to 1 nM. Still for that read-out and setting: under `CS(=O)(=O)N1CCc2c(cccc2Nc2cnc(Cl)c(-c3ccc(C#N)cc3)c2)C1` [Compound 175] stands 10 to 100 nM; under `COc1cnc(-c2cc(Nc3cccc4c3CCN(S(C)(=O)=O)C4)ccc2C)nc1` [Compound 176], 10 to 100 nM. The same measure, in the same setting: to `CS(=O)(=O)N1CCc2c(cccc2Nc2ccc(CO)c(-c3ccc(C#N)cc3)c2)C1` [Compound 178] belongs 100 to 1000 nM; to `CN(C)Cc1ccc(Nc2cccc3c2CCN(S(C)(=O)=O)C3)cc1-c1ccc(C#N)cc1` [Compound 179], 100 to 1000 nM.

With `CNC(=O)c1ccc(Nc2cccc3c2CCN(S(C)(=O)=O)C3)cc1-c1ccc(C#N)cc1` [Compound 180], the IC50 fell in the range of 100 to 1000 nM.

Regarding `Cc1ccc(Nc2cccc3c2CCN(CC(C)(C)O)C3)cc1-c1ccc(F)cn1` [Compound 181], the IC50 fell in the range of 1 to 10 nM. As to `Cc1ccc(Nc2cccc3c2CCN(CC(C)(C)F)C3)cc1-c1ccc(F)cn1` [Compound 182], the IC50 lay in the range of 1 to 10 nM. For the compound `COc1ccc(-c2cc(Nc3cccc4c3CCN(S(C)(=O)=O)C4)ccc2C)nn1` [Compound 183], the IC50 lay within 1 to 10 nM.

As to `Cc1ccc(Nc2cccc3c2CCN(S(C)(=O)=O)C3)cc1C(=O)Nc1ccc(C(F)(F)F)cc1` [Compound 184], the half-maximal inhibitory concentration (IC50) lay in the range of 0.001 to 1 nM. Same read-out and setting: to `Cc1ccc(Nc2cccc3c2CCN(S(C)(=O)=O)C3)cc1C(=O)Nc1ccc(F)cc1` [Compound 185] belongs 0.001 to 1 nM. On to `Cc1ccc(NC(=O)c2cc(Nc3cccc4c3CCN(S(C)(=O)=O)C4)ccc2C)cc1` [Compound 186], for which the half-maximal inhibitory concentration (IC50) lay within 0.001 to 1 nM.

Consider `Cc1ccc(Nc2cccc3c2CCN(S(C)(=O)=O)C3)cc1C(=O)Nc1ccc(OC(F)(F)F)cc1` [Compound 187], for which the IC50 is 1 to 10 nM. Consider `Cc1ccc(Nc2cccc3c2CCN(S(C)(=O)=O)C3)cc1-c1ccccn1` [Compound 189], for which the concentration for half-maximal inhibition (IC50) lay in the range of 0.001 to 1 nM. Same read-out and setting: to `COc1cnc(-c2cc(Nc3cccc4c3CCN(S(C)(=O)=O)C4)ccc2C)cn1` [Compound 190] belongs 1 to 10 nM. Take `Cc1cccc(-c2cc(Nc3cccc4c3CCN(S(C)(=O)=O)C4)ccc2C)n1` [Compound 191]: the IC50 fell in the range of 1 to 10 nM. Take `Cc1ccnc(-c2cc(Nc3cccc4c3CCN(S(C)(=O)=O)C4)ccc2C)c1` [Compound 192]: the half-inhibitory concentration (IC50) lay within 0.001 to 1 nM. Same read-out and setting: to `Cc1ccc(Nc2cccc3c2CCN(S(C)(=O)=O)C3)cc1C(=O)N(C)c1ccccc1` [Compound 193] belongs 100 to 1000 nM; to `Cc1ccc(Nc2cccc3c2CCN(S(C)(=O)=O)C3)cc1C(=O)N(CCO)c1ccccc1` [Compound 194], 100 to 1000 nM. For `Cc1ccc(Nc2cccc3c2CCN(C[C@H](O)CO)C3)cc1-c1ccc(F)cn1` [Compound 195], the IC50 fell in the range of 1 to 10 nM. `Cc1ccc(Nc2cccc3c2CCN(CCC(F)(F)F)C3)cc1-c1ccc(C#N)cn1` [Compound 196]: the IC50 is 1 to 10 nM. With `Cc1c(CN(C)C)cc(Nc2cccc3c2CCN(S(C)(=O)=O)C3)cc1-c1ccc(F)cn1` [Compound 197], the IC50 is 1000 to 10000 nM. In the case of `Cc1ccc(Nc2cccc3c2CCN(CC(C)(C)F)C3)cc1-c1ccc(C#N)cn1` [Compound 198], the IC50 is 0.001 to 1 nM. On the same count and under the same terms, under `Cc1ccc(Nc2cccc3c2CCN(CC(C)(C)O)C3)cc1-c1ccc(C#N)cn1` [Compound 199] stands 1 to 10 nM; under `Cc1ccc(-c2cc(Nc3cccc4c3CCN(CC(C)(C)F)C4)ccc2C)nc1` [Compound 200], 0.001 to 1 nM. Take `Cc1ccc(-c2cc(Nc3cccc4c3CCN(CC(C)(C)O)C4)ccc2C)nc1` [Compound 201]: the IC50 lay within 0.001 to 1 nM. The same measure, in the same setting: to `Cc1ncc(Nc2cccc3c2CCN(S(C)(=O)=O)C3)cc1-c1ccc(F)cn1` [Compound 202] belongs 10 to 100 nM; to `CS(=O)(=O)N1CCc2c(cccc2Nc2cc(C(=O)Nc3ccccc3)c(Cl)cn2)C1` [Compound 203], 1 to 10 nM; to `Cc1ccc(Nc2cccc3c2CCN(S(C)(=O)=O)C3)cc1-c1ccc(C#N)nn1` [Compound 207], 10 to 100 nM. As for `Cc1ccc(Nc2cccc3c2CCN(S(C)(=O)=O)C3)cc1-c1cnc(C#N)cn1` [Compound 208], the IC50 fell in the range of 100 to 1000 nM. The same measure, in the same setting: under `Cc1ccc(-c2cc(Nc3cccc4c3CCN(C[C@H](O)CO)C4)ccc2C)nn1` [Compound 209] stands 100 to 1000 nM. Still for that read-out and setting: under `Cc1ccc(-c2cc(Nc3cccc4c3CCN(C[C@H](O)CO)C4)ccc2C)nc1` [Compound 210] stands 1 to 10 nM; under `Cc1ccc(Nc2cccc3c2CCN(CC(F)(F)CO)C3)cc1-c1ccc(C#N)cn1` [Compound 211], 0.001 to 1 nM; under `Cc1ccc(-c2cc(Nc3cccc4c3CCN(CC(F)(F)CO)C4)ccc2C)nc1` [Compound 212], 0.001 to 1 nM. As for `Cc1ccc(-c2cc(Nc3cccc4c3CCN(CC(C)(C)C)C4)ccc2C)nc1` [Compound 213], the IC50 lay within 1 to 10 nM.

Take `Cc1ccc(Nc2cccc3c2CCN(S(C)(=O)=O)C3)cc1Oc1ccccn1` [Compound 214]: the IC50 fell in the range of 100 to 1000 nM.

Take `Cc1ccc(Nc2cccc3c2CCN(S(C)(=O)=O)C3)cc1OCc1ccccn1` [Compound 215]: the IC50 was in the range of 10 to 100 nM. `Cc1cnc(-c2cc(Nc3cccc4c3CCN(S(C)(=O)=O)C4)ccc2C)nc1` [Compound 216]: the IC50 was 10 to 100 nM.

In the case of `Cc1ccc(Nc2cccc3c2CCN(S(C)(=O)=O)C3)cc1-c1cc(F)ccn1` [Compound 217], the IC50 lay within 1 to 10 nM.

Regarding `Cc1ccc(Nc2cccc3c2CCN(S(C)(=O)=O)C3)cc1-c1cccc(F)n1` [Compound 218], the IC50 lay within 10 to 100 nM. As for `Cc1ccnc(-c2cc(Nc3cccc4c3CCN(S(C)(=O)=O)C4)ccc2C)n1` [Compound 219], the IC50 lay within 10 to 100 nM. For `Cc1ccc(Nc2cccc3c2CCN(S(C)(=O)=O)C3)cc1-c1ncc(F)cn1` [Compound 220], the IC50 is 1 to 10 nM. The same measure, in the same setting: to `Cc1ccc(Nc2cccc3c2CCN(CC(C)(C)F)C3)cc1C(=O)Nc1ccccc1` [Compound 221] belongs 1 to 10 nM; to `Cc1ccc(Nc2cccc3c2CCN(CC(C)(C)O)C3)cc1C(=O)Nc1ccccc1` [Compound 222], 1 to 10 nM; to `Cc1ccc(-c2cc(Nc3cccc4c3CCN(CCS(C)(=O)=O)C4)ccc2C)nc1` [Compound 223], 0.001 to 1 nM. The same measure, in the same setting: under `Cc1ccc(-c2cc(Nc3cccc4c3CCN(CC(C)(F)F)C4)ccc2C)nc1` [Compound 224] stands 0.001 to 1 nM; under `Cc1ncc(Nc2cccc3c2CCN(S(C)(=O)=O)C3)cc1C(=O)Nc1ccccc1` [Compound 225], 1 to 10 nM; under `CS(=O)(=O)N1CCc2c(cccc2Nc2ccc(Cl)c(C(=O)Nc3ccccc3)n2)C1` [Compound 226], 0.001 to 1 nM.

On to `Cc1ccc(Nc2cccc3c2CCN(S(C)(=O)=O)C3)cc1-c1ncccc1F` [Compound 227], for which the IC50 lay in the range of 0.001 to 1 nM. The same measure, in the same setting: under `Cc1cnc(-c2cc(Nc3cccc4c3CCN(S(C)(=O)=O)C4)ccc2C)c(F)c1` [Compound 228] stands 0.001 to 1 nM.

`Cc1ccc(Nc2cccc3c2CCN(S(C)(=O)=O)C3)cc1-c1cc2ccccc2cn1` [Compound 229]: the IC50 lay in the range of 0.001 to 1 nM. Regarding `COc1ccnc(-c2cc(Nc3cccc4c3CCN(S(C)(=O)=O)C4)ccc2C)c1` [Compound 230], the IC50 lay within 0.001 to 1 nM. Still for that read-out and setting: under `Cc1ccc(Nc2cccc3c2CCN(S(C)(=O)=O)C3)cc1-c1ccc2ccccc2n1` [Compound 231] stands 0.001 to 1 nM; under `Cc1ccc(Nc2cccc3c2CCN(CCS(C)(=O)=O)C3)cc1-c1ccc(F)cn1` [Compound 232], 1 to 10 nM.

Regarding `Cc1ccc(-c2cc(Nc3cccc4c3CCN(CC(=O)N(C)C)C4)ccc2C)nc1` [Compound 233], the IC50 fell in the range of 1 to 10 nM. Turning to `Cc1ccc(Nc2cccc3c2CCN(C2CCS(=O)(=O)CC2)C3)cc1-c1ccc(F)cn1` [Compound 234], the IC50 lay within 0.001 to 1 nM. With `Cc1ccc(-c2cc(Nc3cccc4c3CCN(C3CCS(=O)(=O)CC3)C4)ccc2C)nc1` [Compound 235], the IC50 is 0.001 to 1 nM.

With `Cc1ccc(-c2cc(Nc3nccc4c3CCN(S(C)(=O)=O)C4)ccc2C)nc1` [Compound 236], the IC50 lay in the range of 10 to 100 nM.

The assay is the same for the next values; noted with them: enzymatic and cellular assays for the inhibition of hedgehog signaling pathways; read-out: IC50 Ranges.
For `Cc1ccc(Nc2cccc3c2CCN(S(C)(=O)=O)C3)cc1-c1ccc(C(F)(F)F)cn1` [Compound 167], the IC50 is 1 to 10 nM.
